{"source": "patent US20210346500A1", "about": "“PHOTOOXIDATIVE INACTIVATION OF PATHOGENS INCLUDING SARS-CoV-2” (laneg GmbH, priority 2020, published 2021)", "type_in_all_cases": "in vivo, human", "key": {"SARS CoV-2": {"tested_on": "SARS CoV-2", "settings": "active treatment group, 4 weeks after photodynamic treatments; ELISA not specific for SARS CoV vs SARS CoV-2"}, "SARS-CoV-2 (COVID-19)": {"tested_on": "SARS-CoV-2 (COVID-19)", "test": "Placebo-controlled clinical study of photodynamic treatment: course of disease and mortality in COVID-19 patients", "method": "The photosensitizer used was methylene blue as a 1% solution of methylthioninium-chloride dissolved in a 5% glucose solution. (Heltschl GmbH, Germany). The methylene blue solution was applied by flushing and gargling in the oral cavity and throat, and by spraying in the nasal cavity.\n(§1) The photodynamic excitation was performed using the Medlouxx PDT device, produced by laneg GmbH, Germany (www.medlouxx.com). The device applicator emits 660nm laser radiation with 240 mW power. The infected areas were irradiated for 5 minutes resulting in a dosage of about 72 J/cm2. This procedure: 1 min flushing followed by 5 minutes irradiation, was repeated 5 times, resulting in a total dosage of about 360 J/cm2. Before and immediately after the photodynamic treatments, the viral concentration was determined by PCR tests using the PCR real time testing facility ThermoFisher, QuantStudio 3.\nThe placebo patients received exactly same treatment procedure except that all placebo patients were treated with covered radiation heads. The patients were not able to distinguish an active versus a placebo treatment due to the filter function of the laser safety goggles.\n(§2) We have treated 300 patients with the active treatment protocol and 300 patients with the placebo protocol described above. The active treatment group consisted of 164 men and 136 women, with an age range of 35-83 years. All patients signed informed consent prior to the start of the treatment protocol. The main inclusion citeria were fever, typical symptoms and a positive PCR test. The main exclusion criterium was a negative PCR test. Besides fever, we have found a significant variability in the initial presenting symptoms, like cough, loss of smell, loss of taste, headaches, fatigue and others.\nWe have characterized the course of the disease by the degree and duration of fever which was the most prominent symptom (see Table 1): […]"}, "[1]": {"test": "Treatment related adverse events in the clinical study", "settings": "methylene blue + 660 nm irradiation, 300 patients", "method": "as §1, §2"}, "[2]": {"settings": "max fever 39.2° C., 3 weeks, methylene blue + 660 nm irradiation, 300 patients"}, "[3]": {"settings": "max fever 39.5° C., 4-6 weeks, methylene blue + 660 nm irradiation, 300 patients"}, "[4]": {"settings": "moderate = max fever 38.7° C., 2 weeks, methylene blue + 660 nm irradiation, 300 patients"}}, "note": "Entries after “also recorded” stand apart in the source; their conditions may differ.", "data": [{"smiles": "CN(C)c1ccc2nc3ccc(=[N+](C)C)cc-3sc2c1", "note": "[methylene blue, methylthioninium-chloride]", "values": [{"measurement": "Patients with presence of antibodies (ELISA)", "setting": "SARS CoV-2", "result": 96, "unit": "%"}, {"measurement": "Mortality Rate - Active Treatment Group", "setting": "SARS-CoV-2 (COVID-19); 300 patients, methylene blue + 660 nm irradiation", "result": 0.7, "unit": "%"}, {"measurement": "Disease course Severe (Hospital Admission), Active Treatment Number", "setting": "SARS-CoV-2 (COVID-19); [2]", "result": 6, "unit": "patients"}, {"measurement": "Disease course Severe (Hospital Admission), Active Treatment Percentage", "setting": "SARS-CoV-2 (COVID-19); [2]", "result": 2, "unit": "%"}, {"measurement": "Disease course Severe (Hospital/ICU Admission), Active Treatment Number", "setting": "SARS-CoV-2 (COVID-19); [3]", "result": 2, "unit": "patients"}, {"measurement": "Disease course Severe (Hospital/ICU Admission), Active Treatment Percentage", "setting": "SARS-CoV-2 (COVID-19); [3]", "result": 0.6, "unit": "%"}, {"measurement": "Disease course Mild, Active Treatment Number", "setting": "SARS-CoV-2 (COVID-19); mild = max fever 37.7° C., 1 week, 1% methylene blue flushing/gargling/spraying + 660 nm, 240 mW, total about 360 J/cm2, 300 patients", "result": 192, "unit": "patients"}, {"measurement": "Disease course Mild, Active Treatment Percentage", "setting": "SARS-CoV-2 (COVID-19); mild = max fever 37.7° C., 1 week, methylene blue + 660 nm irradiation, 300 patients", "result": 64, "unit": "%"}, {"measurement": "Disease course Moderate, Active Treatment Number", "setting": "SARS-CoV-2 (COVID-19); [4]", "result": 99, "unit": "patients"}, {"measurement": "Disease course Moderate, Active Treatment Percentage", "setting": "SARS-CoV-2 (COVID-19); [4]", "result": 33, "unit": "%"}, {"measurement": "Severe course of disease (both severe categories together), active treatment group", "setting": "SARS-CoV-2 (COVID-19); vs. 19% in placebo, methylene blue + 660 nm irradiation", "result": 2.6, "unit": "%"}, {"measurement": "Attenuation of disease progression (mild plus moderate course), active treatment group", "setting": "SARS-CoV-2 (COVID-19); vs. 81% in placebo, methylene blue + 660 nm irradiation", "result": 97, "unit": "%"}, {"measurement": "Treatment related adverse events / side effects", "setting": "[1]", "result": "free of any side effects; also recorded: no treatment related adverse events"}]}]}
